{"source": "patent US8178516B2", "about": "“Compositions and method for treatment of chronic inflammatory diseases” (Sylvan Labs, LLC, priority 1992, dated 2012)", "origin": "cited, not measured here", "key": {"[1]": {"tested_on": "myocardial glutathione", "details": "subsequent to experimental ischemia and reperfusion"}, "[2]": {"tested_on": "plasma cysteine, plasma glutathione and red blood cell glutathione", "details": "in vivo"}}, "data": [{"smiles": "CC(=O)N[C@@H](CS)C(=O)O", "note": "[N-acetylcysteine]", "values": [{"measurement": "increase in myocardial glutathione", "setting": "[1]", "result": 100, "unit": "fold"}, {"measurement": "levels of plasma cysteine, plasma glutathione and red blood cell glutathione", "setting": "[2]", "result": "increase"}]}]}
